Results from patent US11186807B2, “Reducing acetate ester production in yeast” (VIB VZW, priority 2017, dated 2021).

Tested on: respiration in yeast (S288c and Hybrid A)
Assay: Acetate ester production in mini-scale yeast fermentation with or without Antimycin A
Format: cell-based, Saccharomyces cerevisiae
Conditions: 3 mg/L Antimycin A in medium; genetic backgrounds S288c and Hybrid A; FIG. 7B
Text: One of the main functions of the IMP complex is processing of subunits of the respiration chain. Given the surprising finding that genetic inference with the IMP complex reduces the production of acetate esters (see Example 5 and 8), we wondered whether respiration in general modulates acetate ester production. First, yeasts strains were developed in which five genes known to be crucial for respiration (i.e. CBS1, COR1, COX9, QCR9 and COX12) were separately deleted and subsequently were used in a fermentation experiment to determine aroma production. All selected genes function independently from the IMP complex. […] More precisely, an experiment was performed in which acetate ester production of a yeast strain was measured in medium with or without supplementation of 3 mg/L Antimycin A, a chemical compound blocking the respiratory pathway (Kim et al 1999 J Am Chem Soc 121:4902). […]
Phenotyping of the individual segregants for IA production was performed using an in situ approach, and was conducted as follows: the segregants were streaked from the −80° C. stock on YPGlu 2% agar plates for 48 h at 30° C. […] After 96 h, the fermentation was ended, excess CO2 was once again released by brief opening of the vials, and the vials were measured using gas chromatography (see further). […]

With Antimycin A the “drop of isoamyl acetate production” value was “about 50%”.
